The source of these data is patent US20250019378A1, “PYRROLE[2,3-B]PYRIDINE DERIVATIVES AS TYRO3 INHIBITORS” (HALIA THERAPEUTICS, INC., priority 2021, published 2025).

The experiment concerns the target recombinant human Tyro3 (Homo sapiens (Human), UniProt Q06418). In words: Tyro3 Enzymatic Assay. It counts as biochemical. The conditions noted are these: radiometric [32P]-ATP kinase assay, Poly(Glu, Tyr) substrate, 2 nM enzyme. The procedure: Poly(Glu, Tyr) sodium salt (Glu:Tyr (4:1), quality level 200, molecular weight 5,000-20,000, obtained from Sigma Aldrich, catalogue #P7244, assay concentration 0.20 mg/mL) and recombinant human Tyro3 (obtained from ThermoFisher Scientific, catalogue #PV3828, assay concentration 2 nM) were mixed in assay buffer (20 mM Hepes pH 7.5, 10 mM MgCl2, […] EGTA, 0.02% Brij35, 0.02 mg/ml BSA, 0.1 mM Na3VO4, 2 mM DTT, 1% DMSO, with added MnCl2 at a final concentration of 2 mM). Compounds of interest (in DMSO, serial 3-fold dilution from 10 μM to 0.5 nM) or control (1% DMSO) were dispensed into the kinase reaction mixture by Acoustic technology (Echo550; nanoliter range). After incubation at room temperature for 20 minutes, the kinase reaction was initiated by addition of [^32P]-ATP (Specific activity 10 μCi/μL) and the mixture was incubated at room temperature for 2 hours. The reaction was then stopped by spotting the reaction mixture on strips of phosphocellulose P81 paper. Following washing, the radioactivity of the P81 paper was measured and kinase activity data were expressed as the percent remaining kinase activity in test samples compared to vehicle (dimethyl sulfoxide) reactions. IC50 values and curve fits were obtained using Prism (GraphPad Software).

Chain of recombinant human Tyro3 (Q06418 41-890): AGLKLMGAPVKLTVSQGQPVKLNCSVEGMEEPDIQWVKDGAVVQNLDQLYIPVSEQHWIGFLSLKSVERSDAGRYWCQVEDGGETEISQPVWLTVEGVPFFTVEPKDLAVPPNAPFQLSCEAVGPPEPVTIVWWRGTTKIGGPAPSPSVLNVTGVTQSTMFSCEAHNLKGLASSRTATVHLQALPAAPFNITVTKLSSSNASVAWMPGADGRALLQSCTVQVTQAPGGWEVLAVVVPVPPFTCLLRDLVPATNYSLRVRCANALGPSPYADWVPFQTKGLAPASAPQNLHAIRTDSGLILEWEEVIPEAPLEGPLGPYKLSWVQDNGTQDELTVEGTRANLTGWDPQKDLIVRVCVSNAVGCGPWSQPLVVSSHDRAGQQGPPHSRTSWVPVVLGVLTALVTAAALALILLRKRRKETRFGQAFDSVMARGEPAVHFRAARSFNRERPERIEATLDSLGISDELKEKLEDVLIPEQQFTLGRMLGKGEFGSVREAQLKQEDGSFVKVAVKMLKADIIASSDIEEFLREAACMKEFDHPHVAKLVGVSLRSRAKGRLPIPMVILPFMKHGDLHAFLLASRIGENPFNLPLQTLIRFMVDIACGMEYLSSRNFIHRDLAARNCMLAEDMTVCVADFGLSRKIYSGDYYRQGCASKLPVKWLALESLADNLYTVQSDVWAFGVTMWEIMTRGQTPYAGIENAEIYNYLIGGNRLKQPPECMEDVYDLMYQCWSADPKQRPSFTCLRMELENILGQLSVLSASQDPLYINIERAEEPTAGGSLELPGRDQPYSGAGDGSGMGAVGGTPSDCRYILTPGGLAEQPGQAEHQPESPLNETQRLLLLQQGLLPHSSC

`COc1ccc(-c2c[nH]c3ncc(-c4cnn(CC5CCN(C)CC5)c4)cc23)cn1` [Compound 31, 3-(6-methoxypyridin-3-yl)-5-(1-((1-methylpiperidin-4-yl)methyl)-1H-pyrazol-4-yl)-1H-pyrrolo[2,3-b]pyridine]: the IC50 was in the range of 151 to 501 nM. `COc1ccc(-c2c[nH]c3ncc(-c4cnn(C5CCC(O)CC5)c4)cc23)cn1` (stereo not shown) [Compound 32, 4-(4-(3-(6-methoxypyridin-3-yl)-1H-pyrrolo[2,3-b]pyridin-5-yl)-1H-pyrazol-1-yl)cyclohexan-1-ol]: the IC50 is 151 to 501 nM. Under `COc1ccc(-c2c[nH]c3ncc(-c4cnn(C5CC(OC)C5)c4)cc23)cn1` (stereo not shown) [Compound 33, 5-(1-(3-methoxycyclobutyl)-1H-pyrazol-4-yl)-3-(6-methoxypyridin-3-yl)-1H-pyrrolo[2,3-b]pyridine] stands over 500 nM; under `COc1ccc(-c2c[nH]c3ncc(-c4cc(CN5CCCC(O)C5)n(C)n4)cc23)cn1` (stereo not shown) [Compound 35, 1-((3-(3-(6-methoxypyridin-3-yl)-1H-pyrrolo[2,3-b]pyridin-5-yl)-1-methyl-1H-pyrazol-5-yl)methyl)piperidin-3-ol], over 500 nM.
